{"source": "patent US20130131111A1", "about": "“NMN MODULATORS FOR THE TREATMENT OF NEURODEGENERATIVE DISORDERS” (Babraham Institute, priority 2010, published 2013)", "assay_type_in_all_cases": "cell-based, mouse", "key": {"neurites of SCG neurons": {"tested_on": "neurites of SCG neurons", "assay": "Vincristine-treated neurites of SCG explant cultures", "description": "(§1) Explants were placed into L15 (Leibovitz) medium (Invitrogen), cleaned from other tissues, cut in half and six half explants were placed in the centre of 3.5 cm tissue culture dishes pre-coated with poly-L-lysine (20 μg/ml for 2 h; Sigma) and laminin (20 μg/ml for 2 h; Sigma). Explants were cultured in DMEM containing 4500 mg/L glucose and 110 mg/L sodium pyruvate (Sigma), 2 mM glutamine, 1% penicillin/streptomycin, 1/50 B27 serum supplement and 100 ng/ml 7S NGF (all from Invitrogen) and 4 μM aphidicolin (Sigma) to block proliferation of non-neuronal cells. Neurites were allowed to extend for 7 days in all cultures before any treatment. After this time, neurites were separated from their cell bodies using a scalpel. […] Bright-field images were captured on an Olympus IX81 inverted microscope using a Soft Imaging Systems F-View camera linked to a PC running the Analysis software. Images of the same field of neurites were captured just after or at regular intervals up to 48-72 hours after cut injuries.\nThis experiment was performed in an analogous manner to that described in Examples 2 and 3, however the neurites, instead of being separated by the cell body with a cut, were treated with the neurotoxic chemotherapy drug vincristine. […] The distal part of the neurites was imaged immediately and at 24, 48 and 72 hours after adding the drugs."}, "[1]": {"tested_on": "intracellular NAD(P)^+ levels in SCG cultures", "assay": "NAD(P)+ levels in SCG explant cultures", "details": "100 nM FK866 for 8 h or 24 h; FIG. 2", "description": "as §1\nAt this time, the explants were collected in 100 μl H2O for NAD(P)^+ determination as described in Billington et al. (2008) J Biol Chem 283(10), 6367-6374.\nThe results of this analysis can be seen in FIG. 2. […] Therefore, the reduced intracellular levels of NMN^+ result in a reduction in the turnover of NMN^+ to NAD^+ by isoforms of Nmnat."}, "[2]": {"tested_on": "cut neurites of SCG neurons", "assay": "Cut neurites of SCG explant cultures (Wallerian degeneration)", "description": "as §1, with “injuries. […] In this experiment, SCG neurons were cultured for 7 days as described in the methodology, then the neurites were separated from the cell bodies by a scalpel, and the distal part of the neurites with respect to the cut was imaged immediately after the cut or 24 hours after the cut.” for “injuries.”"}}}
{"smiles": "CC[C@]1(O)C[C@H]2CN(CCc3c([nH]c4ccccc34)[C@@](C(=O)OC)(c3cc4c(cc3OC)N(C=O)[C@H]3[C@@](O)(C(=O)OC)[C@H](OC(C)=O)[C@]5(CC)C=CCN6CC[C@]43[C@@H]65)C2)C1", "note": "[Vincristine, vincristine]", "values": [{"measurement": "toxic effect on neurites", "setting": "neurites of SCG neurons; 0.02 μM vincristine alone", "value": "progressive distal-to-proximal degeneration of neurites"}]}
{"smiles": "O=C(/C=C/c1cccnc1)NCCCCC1CCN(C(=O)c2ccccc2)CC1", "note": "[FK866, N-[4-(1-benzoyl-4-piperidinyl)butyl]-3-(3-pyridinyl)-2E-propenamide]", "values": [{"measurement": "effect on NAD^+ levels", "setting": "[1]", "value": "depletion of NAD^+"}, {"measurement": "neurite survival increase", "setting": "[2]; FK866 100 nM, cut neurites, estimated", "value": "increased by four fold"}, {"measurement": "effect on injured (cut) neurites", "setting": "[2]; FK866 100 nM, imaged 24 hours after cut, FIG. 3", "value": "preserving injured neurites in primary culture even if added shortly after cutting"}, {"measurement": "neuroprotective effect on cell bodies", "setting": "[2]; data not shown", "value": "does not extend to cell bodies"}, {"measurement": "effect on vincristine-induced neurite degeneration", "setting": "neurites of SCG neurons; 0.02 μM vincristine plus 100 nM FK866, up to 72 hours, FIG. 5", "value": "protection"}]}
{"smiles": "NC(=O)c1ccc[n+]([C@@H]2O[C@H](COP(=O)([O-])O)[C@@H](O)[C@H]2O)c1", "note": "[NMN, nicotinamide mononucleotide]", "values": [{"measurement": "effect of adding NMN^+ with FK866 on cut neurites", "setting": "[2]; NMN^+ in combination with FK866, FIG. 4", "value": "reverts the protective effect of FK866"}, {"measurement": "effect of adding NMN with FK866 on vincristine-treated neurites", "setting": "neurites of SCG neurons; 0.02 μM vincristine plus 100 nM FK866 and 1 mM NMN, FIG. 5", "value": "protective effect is reverted"}]}
